Assay results as given in patent US20110092476A1, “Bicycloheteroaryl compounds as P2X7 modulators and uses thereof” (Renovis, Inc., priority 2006, published 2011).
In brackets after ≈: the same amount, converted by molar mass. Where two headings read alike, the source gives them in different places.

Experiments:
[1] = Pharmacokinetic evaluation following intravenous and oral administration in rats (oral bioavailability); format: in vivo, rat; conditions: male Sprague-Dawley rats, PO 1 to 5 mg/kg vs IV 1 mg/kg, AUCinf dose-normalized
Method: Male Sprague-Dawley rats are acclimatized for at least 24 hours prior to experiment initiation. During acclimation period, all animals receive food and water ad libitum. However, food but not water is removed from the animal's cages at least 12 hours before initiation of the experiment. During the first 3 hours of experimentation, the animals receive only water ad libitum. At least three animals each are tested for intravenous and oral dosage. For intravenous formulation, compounds were dissolved (0.25 to 1 mg/mL) in a mixture of 3% dimethyl sulfoxide, 40% PEG 400 and the rest percentage of 40% Captisol in water (w/v). The animals are weighed before dosing. The determined body weight is used to calculate the dose volume for each animal.
Dose volume (mL/kg)=1 mg/kg/formulation concentration (mg/mL)
In instances where the formulation concentrations were less than 0.5 mg/mL, the dosing volume is about 2 mL/kg.
PO rats are typically dosed through oral gavage following the same dose volume formula as IV to achieve a dose level of 1 to 5 mg/kg. […] About 250 uL of blood is obtained at each time point from the animal. Equal volumes of 0.9% normal saline are replaced to prevent dehydration. The whole blood samples are maintained on ice until centrifugation. Blood samples are then centrifuged at 14,000 rpm for 10 minutes at 4° C. and the upper plasma layer transferred into a clean vial and stored at −80° C. The resulting plasma samples are then analyzed by liquid chromatography-tandem mass spectrometry. Following the measurement of plasma samples and dosing solutions, plasma concentration-time curve is plotted. Plasma exposure is calculated as the area under the concentration-time curve extrapolated to time infinite (AUinf). The AUCinf is averaged and the oral bioavailability (% F) for individual animal is calculated as:
AUCinf (PO)/AUCinf (IV), normalized to their respective dose levels. The % F is reported as the mean % F of all animals dosed orally with the compound of the invention at the specified level (see Table 4 below).
For the purpose of Table 4, oral bioavailability of each compound is expressed as follows: […]

[2] = Determination of aqueous (kinetic) solubility; format: physicochemical; conditions: aqueous buffer, kinetic from dmso stock, buffer pH 7.4
Method: The mixture was vortexed for 1 hour and equilibrated overnight at room temperature. The mixture was filtered through a saturated filter and the filtrate was analyzed by LC/MS/MS.
For the purpose of Table 5, solubility of each compound is expressed as follows: […]

P2X7 receptor = molecular target: T1, P2X7 receptor (Homo sapiens, UniProt Q99572); assay: IL-1β release assay in differentiated THP-1 cells stimulated with BzATP (Example 9); format: cell-based
T1 construct: host or cells: THP-1 cells differentiated with LPS and IFN-γ
T1 sequence (Q99572 1-595): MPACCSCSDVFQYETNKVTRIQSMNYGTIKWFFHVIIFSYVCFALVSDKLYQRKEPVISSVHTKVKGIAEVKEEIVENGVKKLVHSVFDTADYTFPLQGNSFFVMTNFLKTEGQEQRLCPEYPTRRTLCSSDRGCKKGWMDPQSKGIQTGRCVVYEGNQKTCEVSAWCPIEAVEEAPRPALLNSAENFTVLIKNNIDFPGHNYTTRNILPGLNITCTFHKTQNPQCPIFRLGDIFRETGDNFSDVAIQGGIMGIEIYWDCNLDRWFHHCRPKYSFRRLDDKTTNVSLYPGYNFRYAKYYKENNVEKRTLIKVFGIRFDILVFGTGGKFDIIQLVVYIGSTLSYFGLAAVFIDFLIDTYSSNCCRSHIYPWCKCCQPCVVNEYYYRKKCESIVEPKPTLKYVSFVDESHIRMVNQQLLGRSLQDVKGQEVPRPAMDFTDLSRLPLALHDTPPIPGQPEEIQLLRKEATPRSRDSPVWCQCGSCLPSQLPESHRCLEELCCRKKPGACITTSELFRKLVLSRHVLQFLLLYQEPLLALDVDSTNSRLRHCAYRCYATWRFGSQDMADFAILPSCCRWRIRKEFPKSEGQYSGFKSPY
Procedure, shortened: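 IC50 derived by four-parameter logistic fit of percent inhibition of IL-1β release (ELISA, background-adjusted). Release triggered by 45 min BzATP at 250 uM final after 30 min compound pretreatment of THP-1 cells previously differentiated 16 h (LPS, IFN-γ, 100 ng/mL each) and re-primed 2 h with LPS.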

[3] = Half-life in human liver microsomes (HLM); conditions: pH 7.4
Method: Test compounds (1 μM) are incubated with 3.3 mM MgCl2 and 0.78 mg/mL HLM (HL101) in 100 mM potassium phosphate buffer (pH 7.4) at 37° C. on the 96-deep well plate. The reaction mixture is split into two groups, a non-P450 and a P450 group. NADPH is only added to the reaction mixture of the P450 group. An aliquot of samples of P450 group is collected at 0, 10, 30, and 60 min time point, where 0 min time point indicated the time when NADPH is added into the reaction mixture of P450 group. […] Collected aliquots are extracted with acetonitrile solution containing an internal standard. […] The compound concentration in supernatant is measured by LC/MS/MS system.
The half-life value is obtained by plotting the natural logarithm of the peak area ratio of compounds/internal standard versus time. The slope of the line of best fit through the points yields the rate of metabolism (k). This is converted to a half-life value using following equations:

[4] = 0.3 μM compound (symbols +), differentiated THP-1 cells, BzATP 250 uM, read-out: IL-1β % Inhib. @ 0.3 or 0.1 uM
[5] = 0.3 μM compound, differentiated THP-1 cells, BzATP 250 uM, "+" symbols, read-out: IL-1β % Inhib. @ 0.3 or 0.1 uM
[6] = THP-1, read-out: IL-1β % Inhib. @ 0.3 or 0.1 uM

Row | SMILES | Oral Bioavailability F (%) [1] | solubility [2] [µM] | inhibition at 0.3 µM (P2X7 receptor; [4]) [%] | half-life at 1 μM [3] [h] | inhibition at 0.3 µM (P2X7 receptor; [5]) [%] | IC50 (P2X7 receptor; THP-1 cells, BzATP 250 uM, IL-1β by ELISA) [nM] | inhibition at 0.3 µM (P2X7 receptor; [6]) [%]
1 | O=C(CCc1cc(C(F)(F)F)ccc1C(F)(F)F)Nc1cccc2c(=O)n(CCO)ccc12 [Compound 62] | + (0-25% F) | < 25 | > 76 | 0.37 | – | – | –
2 | CC(C)(CO)n1ccc2c(NC(=O)Cc3ccc(Cl)c(C(F)(F)F)c3)cccc2c1=O [Compound 369, 2-(4-Chloro-3-trifluoromethyl-phenyl)-N-[2-(2-hydroxy-1,1-dimethyl-ethyl)-1-oxo-1,2-dihydro-isoquinolin-5-yl]-acetamide] | + (0-25% F) | – | – | 0.55 | > 76 | – | –
3 | C[C@H](C(=O)Nc1cccc2c(=O)n([C@@H](C)C(N)=O)ccc12)c1ccc(Cl)cc1 [Compound 265] | ++ (26-50% F) | 26 to 50 (≈ 10.3 to 19.9 µg/mL) | – | 0.97 | > 76 | – | –
4 | C[C@H](CO)n1ccc2c(NC(=O)Cc3ccc(C(F)(F)F)cc3)cccc2c1=O [Compound 319] | +++ (51-75% F) | – | – | 1.22 | > 76 | – | –
5 | Cc1ccc2c(=O)n([C@H](C)CO)ccc2c1NC(=O)Cc1ccc(F)c(C(F)(F)F)c1 [Compound 394] | ++ (26-50% F) | > 75 | – | 0.7 | > 76 | 5.54 | –
6 | C[C@H](C(N)=O)n1ccc2c(NC(=O)Cc3ccc(Cl)cc3F)cccc2c1=O [Compound 290] | + (0-25% F) | – | – | 1.64 | > 76 | – | –
7 | C[C@H](C(N)=O)n1ccc2c(NC(=O)Cc3cccc(C(F)(F)F)c3F)cccc2c1=O [Compound 285] | ++ (26-50% F) | – | – | 1.24 | > 76 | – | –
8 | C[C@H](CO)n1ccc2c(NC(=O)Cc3ccc(F)c(C(F)(F)F)c3)c(Cl)ccc2c1=O [Compound 377, N-[6-Chloro-2-((R)-2-hydroxy-1-methyl-ethyl)-1-oxo-1,2-dihydro-isoquinolin-5-yl]-2-(4-fluoro-3-trifluoromethyl-phenyl)-acetamide] | +++ (51-75% F) | > 75 | – | 1.01 | – | – | > 76
9 | CC(C(=O)Nc1cccc2c(=O)n([C@H](C)C(N)=O)ccc12)c1ccc(Cl)c(C(F)(F)F)c1 (stereo partly drawn) [Compound 267, (R)-2-{5-[2-(4-Chloro-3-trifluoromethyl-phenyl)-propionylamino]-1-oxo-1H-isoquinolin-2-yl}-propionamide] | ++ (26-50% F) | 51 to 75 (≈ 23.8 to 34.9 µg/mL) | – | 1.28 | > 76 | – | –
10 | C[C@H](C(N)=O)n1ccc2c(NC(=O)Cc3ccc(C(F)(F)F)cc3)cccc2c1=O [Compound 298] | + (0-25% F) | < 25 | – | 3.35 | > 76 | – | –
11 | NC(=O)[C@H](CO)n1ccc2c(NC(=O)Cc3ccc(Cl)c(C(F)(F)F)c3)cccc2c1=O [Compound 250, (S)-2-{5-[2-(4-Chloro-3-trifluoromethyl-phenyl)-acetylamino]-1-oxo-1H-isoquinolin-2-yl}-3-hydroxy-propionamide] | – | > 75 | – | 0.9 | > 76 | – | –
12 | C[C@H](C(N)=O)n1ccc2c(NC(=O)Cc3ccc(Cl)cc3)cccc2c1=O [Compound 256] | + (0-25% F) | < 25 | – | 1.29 | > 76 | – | –
13 | O=C(Cc1ccc(F)c(C(F)(F)F)c1)Nc1c(Cl)ccc2c(=O)n(CCO)ccc12 [Compound 386, N-[6-Chloro-2-(2-hydroxy-ethyl)-1-oxo-1,2-dihydro-isoquinolin-5-yl]-2-(4-fluoro-3-trifluoromethyl-phenyl)-acetamide] | + (0-25% F) | < 25 | – | 1.08 | – | – | > 76
14 | C[C@H](CO)n1ccc2c(NC(=O)Cc3cccc(C(F)(F)F)c3F)cccc2c1=O [Compound 324] | ++ (26-50% F) | > 75 | – | 0.7 | > 76 | – | –
15 | O=C(Cc1ccc(Cl)cc1)Nc1cccc2c(=O)n(CCO)ccc12 [Compound 4] | ++++ (>75% F) | – | 26 to 50 | 1.97 | – | – | –
16 | C[C@@H](C(N)=O)n1ccc2c(NC(=O)Cc3ccc(Cl)c(Cl)c3)cccc2c1=O [Compound 236, (S)-2-{5-[2-(3,4-Dichloro-phenyl)-acetylamino]-1-oxo-1H-isoquinolin-2-yl}-propionamide] | + (0-25% F) | – | – | 0.97 | > 76 | – | –
17 | C[C@H](CO)n1ccc2c(NC(=O)Cc3ccc(Cl)c(F)c3)c(Cl)ccc2c1=O [Compound 382] | +++ (51-75% F) | – | – | 1.34 | > 76 | – | –
18 | C[C@H](CO)n1ccc2c(NC(=O)Cc3ccc(C(F)(F)F)cc3)c(Cl)ccc2c1=O [Compound 364] | ++++ (>75% F) | – | – | 3.15 | > 76 | – | –
19 | O=C(Cc1ccc(Cl)c(Cl)c1)Nc1cccc2c(=O)n(CCO)ccc12 [Compound 8] | + (0-25% F) | – | > 76 | 1.41 | – | – | –
20 | C[C@H](CO)n1ccc2c(NC(=O)Cc3ccc(Cl)c(C(F)(F)F)c3)cccc2c1=O [Compound 362] | ++ (26-50% F) | – | – | 0.97 | > 76 | – | –
21 | CC(C(=O)Nc1cccc2c(=O)n([C@H](C)C(N)=O)ccc12)c1ccc(Cl)cc1 (some centres unmarked) [Compound 247] | ++ (26-50% F) | – | – | 2.11 | > 76 | – | –
22 | C[C@H](C(N)=O)n1ccc2c(NC(=O)Cc3cccc(C(F)(F)F)c3F)c(Cl)ccc2c1=O [Compound 342] | + (0-25% F) | – | – | 1.16 | > 76 | – | –
23 | O=C(Cc1ccc(Cl)c(C(F)(F)F)c1)Nc1cccc2c(=O)n(C[C@@H]3CCCN3)ccc12 [Compound 232, 2-(4-Chloro-3-trifluoromethyl-phenyl)-N-(1-oxo-2-(S)-1-pyrrolidin-2-ylmethyl-1,2-dihydro-isoquinolin-5-yl)-acetamide] | – | – | – | 7.37 | > 76 | – | –
24 | C[C@H](C(N)=O)n1ccc2c(NC(=O)Cc3ccc(Cl)c(C(F)(F)F)c3)cccc2c1=O [Compound 238, (R)-2-{5-[2-(4-Chloro-3-trifluoromethyl-phenyl)-acetylamino]-1-oxo-1H-isoquinolin-2-yl}-propionamide] | + (0-25% F) | – | – | 1.59 | > 76 | – | –
25 | C[C@H](CO)n1ccc2c(NC(=O)[C@H](C)c3ccc(Cl)c(Cl)c3)cccc2c1=O [Compound 320] | – | 51 to 75 (≈ 21.4 to 31.4 µg/mL) | – | – | > 76 | – | –
